Read-outs that look alike come from different tables or passages of the source.
Experiments:
[1] = assay type: physicochemical
Septoria tritici = test: In vivo preventive test on Septoria tritici (leaf spot on wheat); settings: 500 ppm; wheat plants sprayed 24 hours before contamination; grading 21 to 28 days after contamination vs control plants
Protocol: Wheat plants (“Scipion” variety), sown in starter cups on a 50/50 peat soil-pozzolana substrate and grown at 22° C. (12 h)/20° C. (12 h), are treated at the 1-leaf stage (10 cm height) by spraying with the active ingredient prepared as described above. Plants, used as controls, are treated with the mixture of acetone/tween/DMSO/water not containing the active material. After 24 hours, the plants are contaminated by spraying the leaves with an aqueous suspension of cryopreserved Septoria tritici spores (500 000 spores per ml). […] Grading (% of efficacy) is carried out 21 to 28 days after the contamination, in comparison with the control plants.

[2] = method [a]: HPLC/LC-MS on reversed phase at pH 2.7, 0.1% formic acid in water / acetonitrile, linear gradient 10% to 95% acetonitrile
[3] = HPLC on reversed phase columns, method [a]: pH 2.7, 0.1% formic acid in water / acetonitrile, linear gradient 10% to 95% acetonitrile
[4] = method [a]: HPLC/LC-MS on reversed phase at pH 2.7, 0.1% formic acid in water / acetonitrile, gradient 10% to 95% acetonitrile

log P [1, 2] | log P [1, 3] | Structure (SMILES) | % of efficacy (protection) (Septoria tritici) [%] | further results
 |  | Cc1cc(NC(=O)C2(C)CC(c3cc4cc(Br)cnc4c(F)c3F)=NO2)n(C)n1 (stereo not drawn) [compound 18] | 93 | Log P ([1]; method [a]: HPLC/LC-MS on reversed phase at pH 2.7, 0.1% formic acid in water and acetonitrile, linear gradient 10% to 95% acetonitrile): 2.6^[a]
2.42^[a] |  | CCn1cc(CNC(=O)C2(C)CC(c3cc4cc(Br)cnc4c(OC)c3OC)=NO2)c(C)n1 (stereo not drawn) [compound 30] | 100 | 
 | 3.46[a] | CC(NC(=O)C1(C)CC(c2ccc3ncc(Br)cc3c2)=NO1)c1ccccc1 (stereo not drawn) [compound 292] | 96 | 
 | 2.39[a] | COC(CNC(=O)C1(C)CC(c2ccc3ncc(Br)cc3c2)=NO1)OC (stereo not drawn) [compound 290] | 96 | 
3.21^[a] |  | CC1(C(=O)NCc2ccccc2)CC(c2ccc3ncc(Br)cc3c2)=NO1 (stereo not drawn) [compound 91] | 75 | 
 | 2.94[a] | C#Cc1cnc2ccc(C3=NOC(C)(C(=O)NC(C)c4nc(C(C)C)no4)C3)cc2c1 (stereo not drawn) [compound 329] | 100 | 
2.46^[a] |  | CC(C)NC(=O)C1(CF)CC(c2ccc3ncc(Br)cc3c2)=NO1 (stereo not drawn) [compound 76] | 75 | 
 |  | C#Cc1cc2cc(C3=NOC(C)(C(=O)NCc4cn(CC)nc4C)C3)ccc2nc1C#N (stereo not drawn) [compound 491] | 75 | log P [1, 4]: 2.39[a]
 |  | C#Cc1cnc2ccc(C3=NOC(OC)(C(=O)N(OC)C(C)C)C3)cc2c1 (stereo not drawn) [compound 468] | 100 | log P [1, 4]: 2.96[a]
3.11^[a] |  | C#Cc1cnc2ccc(C3=NOC(C)(C(=O)NCC4CCCOC4c4ccccc4)C3)cc2c1 (stereo not drawn) [compound 222] | 71 | 
 |  | CCn1cc(CNC(=O)C2(C)CC(c3ccc4nc(OC)c(I)cc4c3)=NO2)c(C)n1 (stereo not drawn) [compound 472] | 75 | log P [1, 4]: 3.11[a]
 |  | C=CC1(C(=O)NCC2COC(C)(C)O2)CC(c2ccc3ncc(Br)cc3c2)=NO1 (stereo not drawn) [compound 732] | 100 | log P ([1]; HPLC on reversed phase columns, method [a]: pH 2.7, 0.1% formic acid in water and acetonitrile, linear gradient 10% to 95% acetonitrile): 2.98[a]
2.63^[a] |  | C#Cc1cnc2ccc(C3=NOC(C)(C(=O)NCc4ccc5[nH]ccc5c4)C3)cc2c1 (stereo not drawn) [compound 115] | 75 | 
 | 2.56[a] | CC(NC(=O)C1(C)CC(c2ccc3ncc(Br)cc3c2)=NO1)c1nccs1 (stereo not drawn) [compound 310] | 100 | 
 | 1.37[a] | C#Cc1cnc2ccc(C3=NOC(C)(C(=O)NC(CN4CCCC4)C4CC4)C3)cc2c1 (stereo not drawn) [compound 361] | 78 | 
 |  | C#Cc1cc2cc(C3=NOC(C)(C(=O)NCc4cn(CC)nc4C)C3)ccc2nc1OC (stereo not drawn) [compound 490] | 88 | log P [1, 4]: 2.55[a]
2.47^[a] |  | CCn1cc(CNC(=O)C2(C)CC(c3cc4cc(Br)cnc4c(F)c3OC)=NO2)c(C)n1 (stereo not drawn) [compound 29] | 100 | 
3.79^[a] |  | CCn1cc(CNC(=O)C2(C)CC(c3ccc4ncc(C#C[Si](C)(C)C)cc4c3)=NO2)c(C)n1 (stereo not drawn) [compound 149] | 93 | 
 | 2.27[a] | CC1(C(=O)NC2CCOCC2)CC(c2ccc3ncc(Br)cc3c2)=NO1 (stereo not drawn) [compound 307] | 100 | 
 |  | C#Cc1cnc2ccc(C3=NOC(CC)(C(=S)NCc4cn(CC)nc4C)C3)cc2c1 (stereo not drawn) [compound 507] | 97 | log P [1, 4]: 3.31[a]
 |  | CCONC(=O)C1(C)CC(c2ccc3ncc(Br)cc3c2)=NO1 (racemic) [compound 389] | 100 | log P [1, 4]: 2.17[a]
 | 2.27[a] | CCOCCCNC(=O)C1(C(C)O)CC(c2ccc3ncc(Br)cc3c2)=NO1 (stereo not drawn) [compound 560] | 97 | 
 | 2.78[a] | C#Cc1cnc2ccc(C3=NOC(C)(C(=O)NC(C)C4CC4)C3)cc2c1 (stereo not drawn) [compound 330] | 100 | 
3.11^[a] |  | C#Cc1cnc2ccc(C3=NOC(C)(C(=O)NCC4CCOc5ccccc54)C3)cc2c1 (stereo not drawn) [compound 223] | 71 | 

Source: US9510598B2, “Nitrogen-containing heterocyclic compounds for plant disease control” (BAYER CROPSCIENCE AG, priority 2012, dated 2016)
